Key:
[1] = tested on: BAF wildtype synovial sarcoma cells (SW982); test: Confluence (growth) over time in SW982 cells; assay type: cell-based, human; conditions: various concentrations, FIG. 17
[2] = tested on: Synovial Sarcoma PDX model (SA13412); test: Tumor volume in the Synovial Sarcoma PDX model (SA13412); assay type: in vivo; conditions: various concentrations, FIG. 23
BRD9 [3] = molecular target: T1, BRD9 (Homo sapiens, UniProt Q9H8M2); test: Protein degradation by HiBiT luminescent readout (BRD9, BRD7, BRD4); assay type: cell-based; set-up: endogenously expressing BRD9 with HiBiT fusion tag via CRISPR; host or cells: 293T.166 (BRD9-HiBiT), also expressing LgBiT ectopically; conditions: FIG. 11
T1 sequence (Q9H8M2 1-597): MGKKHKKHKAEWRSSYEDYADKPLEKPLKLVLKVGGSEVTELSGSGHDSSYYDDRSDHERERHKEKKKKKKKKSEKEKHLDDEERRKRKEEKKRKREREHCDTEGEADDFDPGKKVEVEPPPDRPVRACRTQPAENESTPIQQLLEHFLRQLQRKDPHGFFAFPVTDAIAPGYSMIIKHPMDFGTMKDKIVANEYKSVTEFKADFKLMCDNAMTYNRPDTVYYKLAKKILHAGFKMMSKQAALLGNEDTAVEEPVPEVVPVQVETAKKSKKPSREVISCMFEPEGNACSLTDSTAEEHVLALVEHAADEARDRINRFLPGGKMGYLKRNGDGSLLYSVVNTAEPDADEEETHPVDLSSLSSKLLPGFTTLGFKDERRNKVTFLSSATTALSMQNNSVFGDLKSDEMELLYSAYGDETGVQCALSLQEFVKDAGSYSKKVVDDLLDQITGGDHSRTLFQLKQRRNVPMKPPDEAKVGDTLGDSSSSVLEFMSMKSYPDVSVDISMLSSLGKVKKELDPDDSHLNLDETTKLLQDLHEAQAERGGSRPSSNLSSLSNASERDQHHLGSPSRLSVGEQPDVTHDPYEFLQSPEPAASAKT

BRD9 [4] = molecular target: T1, BRD9; test: In-vivo BRD9 degradation in the Yamato-SS xenograft model; conditions: various concentrations and times, FIG. 12
BRD9 [5] = molecular target: T1, BRD9; test: In-vivo BRD9 degradation in the Aska-SS xenograft model; conditions: various concentrations and times, FIG. 13
E3 = E3 (Homo sapiens, UniProt Q96SW2); test: FP-E3 binding (Kd)
SW982 = SW982 viability (GI50); assay type: cell-based; conditions: Homo sapiens; SW982 cells
HEPG2 = HEPG2 viability; assay type: cell-based; conditions: HEPG2 cells
CYP 2C19 [6] = molecular target: T2, CYP 2C19 (Homo sapiens, UniProt P33261); test: CYP inhibition 2C19; assay type: in vitro ADME
CYP 2C8 = CYP 2C8 (Homo sapiens, UniProt P10632); test: CYP inhibition 2C8; assay type: in vitro ADME
CYP 2E1 = CYP 2E1 (Homo sapiens, UniProt P05181); test: CYP inhibition 2E1; assay type: in vitro ADME
CYP 2C19 [7] = molecular target: T2, CYP 2C19; test: CYP TDI (time-dependent inhibition); assay type: in vitro ADME
BRD9 [8] = molecular target: T1, BRD9; test: Western blot of BRD9, BRD4 and BRD7 in Yamato-SS cells; assay type: cell-based; set-up: endogenous in cells; host or cells: Yamato-SS (human synovial sarcoma); conditions: FIG. 3
Protocol: After treatment cells were collected, lysed in RIPA buffer supplemented with 2× proteasome/protease inhibitor, and protein concentrations were determined by Pierce™ BCA Protein Assay Kit. Samples were diluted to appropriate concentrations and run in a western blot.

BRD9 [9] = molecular target: T1, BRD9; test: Western blot, in-vivo BRD9 degradation in ASKA-SS tumors; set-up: inoculated subcutaneously into BALB/c nude mice at the right flank for tumor development; from tissue; host or cells: Yamato-SS xenograft tumours in BALB/c nude mice; species or system BALB/c nude mice; conditions: single dose 10 or 75 mg/kg PO, FIG. 13
Protocol: ASKA-SS cells were maintained in vitro until exponential growth phase and inoculated subcutaneously into BALB/c nude mice at the right flank for tumor development. Mice were treated with single dose of Compound 172 at 10 or 75 mg/kg PO. Tumor were collected at indicated time points and snap frozen until lysis. Tumors were ground and lysed in RIPA Buffer containing 2× protease/phosphatase inhibitor using a freeze grinder at 50 Hz for 5 minutes. Protein concentrations were determined by Pierce™ BCA Protein Assay Kit. Samples were diluted to appropriate concentrations and run in a western blot.

T2 sequence (P33261 whole entry): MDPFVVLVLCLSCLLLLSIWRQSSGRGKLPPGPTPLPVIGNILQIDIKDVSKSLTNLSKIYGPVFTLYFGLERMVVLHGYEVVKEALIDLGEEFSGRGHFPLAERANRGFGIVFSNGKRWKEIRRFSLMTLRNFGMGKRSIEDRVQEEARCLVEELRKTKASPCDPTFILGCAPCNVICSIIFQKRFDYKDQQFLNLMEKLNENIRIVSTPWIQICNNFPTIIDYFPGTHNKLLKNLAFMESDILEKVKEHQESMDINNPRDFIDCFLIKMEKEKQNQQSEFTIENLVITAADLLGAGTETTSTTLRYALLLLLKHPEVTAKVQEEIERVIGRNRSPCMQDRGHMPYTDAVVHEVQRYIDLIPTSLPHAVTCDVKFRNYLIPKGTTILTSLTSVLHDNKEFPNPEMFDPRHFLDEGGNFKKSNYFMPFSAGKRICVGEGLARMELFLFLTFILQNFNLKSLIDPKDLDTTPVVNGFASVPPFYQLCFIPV
Sequence of E3 (Q96SW2 whole entry): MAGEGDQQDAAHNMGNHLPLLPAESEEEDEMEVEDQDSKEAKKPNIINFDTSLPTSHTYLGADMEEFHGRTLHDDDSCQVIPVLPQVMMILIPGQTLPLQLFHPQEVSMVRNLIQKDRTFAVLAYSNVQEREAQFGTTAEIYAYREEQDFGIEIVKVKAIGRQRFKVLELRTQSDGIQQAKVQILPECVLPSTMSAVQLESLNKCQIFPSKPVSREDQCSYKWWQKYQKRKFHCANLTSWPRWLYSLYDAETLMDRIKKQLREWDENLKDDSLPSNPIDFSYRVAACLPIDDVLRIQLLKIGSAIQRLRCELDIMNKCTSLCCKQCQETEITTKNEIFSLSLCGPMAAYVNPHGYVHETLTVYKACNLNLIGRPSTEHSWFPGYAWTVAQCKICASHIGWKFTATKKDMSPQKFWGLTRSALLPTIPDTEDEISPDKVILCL
Sequence of CYP 2C8 (P10632 whole entry): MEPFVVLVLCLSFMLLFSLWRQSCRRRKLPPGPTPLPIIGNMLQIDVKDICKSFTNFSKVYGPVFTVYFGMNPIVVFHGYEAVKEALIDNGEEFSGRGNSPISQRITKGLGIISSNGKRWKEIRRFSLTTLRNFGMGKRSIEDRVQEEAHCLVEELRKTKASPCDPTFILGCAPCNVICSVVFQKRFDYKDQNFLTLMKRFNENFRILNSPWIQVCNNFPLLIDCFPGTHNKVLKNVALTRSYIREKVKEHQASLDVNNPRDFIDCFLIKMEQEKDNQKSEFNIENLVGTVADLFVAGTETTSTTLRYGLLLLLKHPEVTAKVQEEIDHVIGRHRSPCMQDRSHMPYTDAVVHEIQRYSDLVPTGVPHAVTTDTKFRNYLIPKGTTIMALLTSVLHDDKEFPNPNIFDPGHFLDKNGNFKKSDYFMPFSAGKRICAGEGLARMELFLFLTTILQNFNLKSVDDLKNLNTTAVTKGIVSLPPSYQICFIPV
Sequence of CYP 2E1 (P05181 whole entry): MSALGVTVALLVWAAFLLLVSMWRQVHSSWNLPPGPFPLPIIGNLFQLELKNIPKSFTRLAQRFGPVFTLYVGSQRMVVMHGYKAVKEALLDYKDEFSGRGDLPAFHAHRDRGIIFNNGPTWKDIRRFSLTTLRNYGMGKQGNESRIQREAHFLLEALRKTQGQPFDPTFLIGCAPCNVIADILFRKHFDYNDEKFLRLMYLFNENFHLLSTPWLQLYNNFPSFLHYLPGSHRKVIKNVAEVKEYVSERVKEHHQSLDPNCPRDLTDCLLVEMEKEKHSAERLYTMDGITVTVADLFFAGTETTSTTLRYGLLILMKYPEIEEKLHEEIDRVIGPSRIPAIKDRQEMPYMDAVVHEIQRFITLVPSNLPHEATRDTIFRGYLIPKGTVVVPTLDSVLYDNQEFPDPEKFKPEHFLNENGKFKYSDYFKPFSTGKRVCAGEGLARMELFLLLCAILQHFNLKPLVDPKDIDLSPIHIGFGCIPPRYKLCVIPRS

Question: `COc1cc(-c2cn(C)c(=O)c(C)c2C)cc(OC)c1CN1CCC(N2CCN(c3ccc(NC4CCC(=O)NC4=O)cc3F)CC2)C(F)(F)C1` (single isomer, unassigned) [Compound 176, 3-[4-[4-[1-[[2,6-dimethoxy-4-(1,4,5-trimethyl-6-oxo-3-pyridyl)phenyl]methyl]-3,3-difluoro-4-piperidyl]piperazin-1-yl]-3-fluoro-anilino]piperidine-2,6-dione] was tested. Which “confluence as a percentage of control over time” value [1] did it give?
Answer: The value was “lack of growth inhibition”.

Question: What about the “mean tumor volume+SEM” value [2] of the same molecule?
Answer: The value was “efficacy”.

Question: What about the “protein degradation levels by HiBiT luminescent readout, BRD9 versus BRD7 and BRD4” value (BRD9 [3]) of the same molecule?
Answer: Its value is “selective degradation”.

Question: For `COc1cc(-c2cn(C)c(=O)c(C)c2C)cc(OC)c1CN1CCC(N2CCN(c3ccc(NC4CCC(=O)NC4=O)cc3F)CC2)C(F)(F)C1` (stereo not drawn) [Compound 172, 3-[4-[4-[1-[[2,6-dimethoxy-4-(1,4,5-trimethyl-6-oxo-3-pyridyl)phenyl]methyl]-3,3-difluoro-4-piperidyl]piperazin-1-yl]-3-fluoro-anilino]piperidine-2,6-dione], which “in-vivo BRD9 degradation (normalized concentration)” value (BRD9 [4]) is on record?
Answer: Its value is “dose dependent in-vivo BRD9 degradation”.

Question: And the “in-vivo BRD9 degradation (normalized concentration)” value (BRD9 [5])?
Answer: The value was “dose dependent in-vivo BRD9 degradation”.

Question: What about the Kd (E3) of the same molecule?
Answer: Its Kd is 0.95 µM.

Question: What about the GI50 (SW982) of the same molecule?
Answer: The GI50 was > 10 µM.

Question: And the “HEPG2 Viability” value (HEPG2)?
Answer: Its value is >9.99 µM.

Question: And the IC50 (CYP 2C19 [6])?
Answer: Its IC50 is 30 µM.

Question: What about the IC50 (CYP 2C8) of the same molecule?
Answer: The IC50 was 30 µM.

Question: What about the IC50 (CYP 2E1) of the same molecule?
Answer: Its IC50 is 30 µM.

Question: And the IC50 (CYP 2C19 [7]; 2C19, first of two values in brackets, read-out: CYP TDI 2C19, first value)?
Answer: Its IC50 is > 50 µM.

Question: And the IC50 (CYP 2C19 [7]; 2C19, second of two values in brackets, read-out: CYP TDI 2C19, second value)?
Answer: The IC50 was 24 µM.

Question: And the “degradation of BRD9 versus BRD4 and BRD7, western blot” value (BRD9 [8])?
Answer: Its value is “dose response degradation specific to BRD9, and not bromodomain containing proteins BRD4 and BRD7”.

Question: What about the “in-vivo BRD9 degradation, western blot” value (BRD9 [9]) of the same molecule?
Answer: The value was “dose dependent in-vivo BRD9 degradation”.
